Reference: patent US7087392B2, “Antiproliferative SgK reagents and methods” (The Regents of the University of California, priority 1999, dated 2006)

Assays:
[1] = test system: Sgk and Erk/MAPK; experiment: Subcellular localization of Sgk and Erk/MAPK in mammary tumor cells; format: cell-based; conditions: MEK inhibitor treatment
From the text: Sgk/MAPK interactions: new level of cross talk between GR and phosphorylation cascades. We also observed that the enzymatic activity and subcellular localization of Sgk and the Erk1/Erk2 members of the Mitogen Activated Protein Kinase (MAPK) gene family are co-regulated in a stimulus-dependent manner. […] Wild type or kinase dead forms of Sgk can be co-immunoprecipitated with Erk/MAPK from either serum- or dexamethasone-treated mammary tumor cells. […] Conversely, the forced cellular localization of ectopically expressed Sgk into the nucleus, using the NLS-Sgk, or into the cytoplasmic compartment using the wild type sgk gene, caused Erk/MAPK to co-localize with Sgk.

[2] = test system: endogenous Sgk; experiment: Phosphorylation state of Sgk in treated cells; format: cell-based; conditions: treatment of cells; serum stimulated mammary tumor cells for the PI 3-kinase inhibitors
From the text: Cotransfection of PDK1 with Sgk caused a 6-fold activation of Sgk activity, whereas, the kinase-dead form of PDK1 had no effect. […] The Ser-78 in the amino terminal domain is a third phosphorylation site and expression of the S78G Sgk mutation ablates the presence of the slowest migrating form of phosphorylated Sgk in SDS polyacrylamide gels.

COc1cccc(-c2cc(=O)c3ccccc3o2)c1N [PD98059]
subcellular distribution of Sgk and Erk/MAPK [1]: caused both Sgk and Erk/MAPK to localize to the cytoplasm

C=C1[C@@H](O)[C@@H]2O[C@]3(CC[C@H](/C=C/[C@@H](C)[C@@H]4CC(C)=C[C@@]5(O[C@H](C[C@@](C)(O)C(=O)O)CC[C@H]5O)O4)O3)CC[C@H]2O[C@@H]1[C@@H](O)C[C@H](C)[C@H]1O[C@@]2(CCCCO2)CC[C@H]1C [okadaic acid]
generation of hyperphosphorylated form of Sgk [2]: generates a hyperphosphorylated active Sgk
